Laboratory results taken from BindingDB's records for doi:10.1016/j.bmcl.2011.11.051 (The Ohio State University, 2012).

Target: Neuronal acetylcholine receptor subunit alpha-4/beta-2 (Homo sapiens, UniProt P43681+P17787)
Assay: Antagonist activity at human nAChR alpha4/beta2 receptor expressed in HEK ts201 cells assessed as calcium accumulation by fluorescence analysis

Sequence of Neuronal acetylcholine receptor subunit alpha-4/beta-2 (P43681 whole entry): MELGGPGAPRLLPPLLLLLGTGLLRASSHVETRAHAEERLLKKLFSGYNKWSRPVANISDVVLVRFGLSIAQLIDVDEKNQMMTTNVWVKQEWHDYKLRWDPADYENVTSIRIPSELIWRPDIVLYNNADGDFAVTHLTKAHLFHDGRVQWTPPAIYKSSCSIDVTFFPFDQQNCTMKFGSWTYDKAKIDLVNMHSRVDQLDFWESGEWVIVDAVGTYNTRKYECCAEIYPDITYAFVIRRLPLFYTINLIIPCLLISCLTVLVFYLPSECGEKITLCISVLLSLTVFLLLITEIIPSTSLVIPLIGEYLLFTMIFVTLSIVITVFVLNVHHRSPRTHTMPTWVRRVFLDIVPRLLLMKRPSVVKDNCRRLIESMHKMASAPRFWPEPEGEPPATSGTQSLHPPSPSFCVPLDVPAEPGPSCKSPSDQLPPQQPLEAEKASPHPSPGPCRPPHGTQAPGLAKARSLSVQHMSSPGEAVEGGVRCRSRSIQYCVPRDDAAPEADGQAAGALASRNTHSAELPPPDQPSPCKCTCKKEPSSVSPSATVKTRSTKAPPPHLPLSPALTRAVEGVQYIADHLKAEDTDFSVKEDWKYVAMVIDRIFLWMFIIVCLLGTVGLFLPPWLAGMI
Sequence of Neuronal acetylcholine receptor subunit alpha-4/beta-2 (P17787 whole entry): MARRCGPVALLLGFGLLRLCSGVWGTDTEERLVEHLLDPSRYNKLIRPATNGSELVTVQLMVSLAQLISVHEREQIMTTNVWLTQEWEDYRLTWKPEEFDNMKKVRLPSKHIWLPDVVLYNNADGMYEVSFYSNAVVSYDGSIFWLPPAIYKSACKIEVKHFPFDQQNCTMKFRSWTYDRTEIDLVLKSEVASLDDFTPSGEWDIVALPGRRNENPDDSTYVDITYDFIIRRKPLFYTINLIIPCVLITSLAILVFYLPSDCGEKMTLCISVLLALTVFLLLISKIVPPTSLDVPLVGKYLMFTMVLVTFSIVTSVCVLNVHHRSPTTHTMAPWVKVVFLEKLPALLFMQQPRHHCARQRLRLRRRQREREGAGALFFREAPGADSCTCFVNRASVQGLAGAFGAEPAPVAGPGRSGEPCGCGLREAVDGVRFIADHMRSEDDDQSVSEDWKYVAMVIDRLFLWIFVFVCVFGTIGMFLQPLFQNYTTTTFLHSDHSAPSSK

| IC50 [µM] | Compound |
| --- | --- |
| 5.13 | O=C(OCC1CCCN(CCCc2ccccc2)C1)c1ccccc1-n1c(O)cc(CCc2ccccc2)c1O (stereo not given) |
| 4.47 | CCN1CCCC(COC(=O)c2ccccc2-n2c(O)cc(Cc3ccccc3)c2O)C1 (stereo not given) |
| 4.47 | O=C(OCC1CCCN(CCc2ccccc2)C1)c1ccccc1-n1c(O)cc(Cc2ccccc2)c1O (stereo not given) |

Continued, compound first:

| Compound | IC50 [µM] |
| --- | --- |
| O=C(OCC1=CCCN(CCCc2ccccc2)C1)c1ccccc1-n1c(O)cc(Cc2ccccc2)c1O | 5.13 |
| Cc1cc(O)n(-c2ccccc2C(=O)OC[C@@H]2CCCN(CCCc3ccccc3)C2)c1O | 8.91 |
